What was measured:
[1] = tested on: EJ human bladder carcinoma cells; experiment: Sensitivity of EJ cells to CPT-11, SN-38, SN-38G (3H-thymidine incorporation); conditions: read-out: IC50 (cytotoxicity), 24 h exposure, pH not stated
[2] = tested on: EJ/mβG cells; experiment: Sensitivity of EJ/mβG cells to CPT-11, SN-38, SN-38G (3H-thymidine incorporation); conditions: read-out: IC50 (cytotoxicity); EJ/mβG cells, 24 h exposure, pH not stated
[3] = Intratumoral concentrations of CPT-11, SN-38 and SN-38G after CPT-11 treatment (SPE-HPLC)
Description: Tumors were collected 2, 8 and 24 h after CPT treatment, immediately dispersed in ice-cold acidic methanol (methanol: water: perchloric acid=20:20:1), and homogenized 60 sec on an Ultraturax tissue homogenizer at 20,000 rpm. The samples were clarified by centrifugation at 15,000 g for 5 min at 4° C. Supernatants were diluted with 0.1 M KH2PO4 and then separated by SPE-HPLC on a μBondapack column with 27% acetonitrile in 0.1 M potassium phosphate buffer pH=2.6. […] These three analytes were quantified by comparison with standard curves generated with analyte concentrations ranging from 2.0 pg to 200 ng.

[4] = tested on: EJ tumor xenografts; experiment: Anti-tumor effect of CPT-11 on EJ xenografts; assay type: in vivo, Beige-SCID mice; conditions: EJ tumors, dose of 10 mg/kg, i.v. on two consecutive days
Description: (§1) Three to four month old Beige-SCID female mice were used in this study. The mice were maintained under SPF conditions and were fed a standard laboratory diet with free access to food and water, under artificial circadian rhythm. EJ or EJ/mβG cells were injected into the mice subcutaneously in their right flank to form tumor xenografts.

[5] = Serum concentrations of CPT-11, SN-38 and SN-38G after CPT-11 administration
[6] = tested on: EJ/mβG tumor xenografts; experiment: Anti-tumor effect of CPT-11 on EJ/mβG xenografts; assay type: in vivo, Beige-SCID mice; conditions: EJ/mβG tumors, dose of 10 mg/kg, i.v. on two consecutive days
Description: as §1

[7] = tested on: EJ human bladder cancer cells; experiment: Prodrug activation of HAMG by enzyme, 3H-thymidine incorporation; assay type: cell-based; conditions: 10 μM HAMG
Description: (§2) The prodrug activation activity of the human beta-glucuronidase variants was determined as follows. EJ human bladder cancer cells were incubated with graded concentrations (see FIGS. 3B and 3C) of human β-glucuronidase variants in RPMI (pH 6.8) containing either 10 μM HAMG or 100 nM SN-38G for 24 hours. The cells were further incubated for 24 hours in fresh medium before incorporation of ^3H-thymidine into cellular DNA was measured following the procedure described below.
(§3) Purified recombinant human beta-glucuronidase and its variants with defined concentrations were mixed with 10 μM HAMG or 100 nM SN-38G and the mixture was added to 5000 EJ human bladder cancer cells in 200 μl complete medium at pH 6.8 for 24 h. The cells were washed and incubated in fresh medium for 24 h and then pulsed for 16 h with ^3H-thymidine (1 μCi/well). The cells were harvested and the radioactivity was measured in a TopCount Microplate Scintillation Counter (Packard, Meriden, Conn.). Results are expressed as percent inhibition of ^3H-thymidine incorporation into cellular DNA in comparison to untreated cells.

[8] = Beta-glucuronidase activity of fusion proteins at pH 7.0; assay type: biochemical; conditions: pH 7.0, 0.5 mM substrate, 30 minutes, 37° C.
Description: Next, the beta-glucuronidase activity of the fusion proteins was measured by adding 0.5 mM 4-methylumbelliferyl β-D-glucuronide in a beta-glucuronidase reaction buffer (50 mM Bis-Tris, 50 mM triethanol amine, 100 mM acetic acid, 100 ng/ml bovine serum albumin, pH 7.0) for 30 minutes at 37° C. The reaction was terminated by adding an equal volume of stop buffer (1 M glycine, 0.5 M sodium bicarbonate, pH 11). The fluorescence of 4-MU was measured at excitation/emission wavelengths of 355/460 nm in a Gemini EM microplate spectrofluorometer (Molecular Device, Sunnyvale, Calif.). […] See also FIG. 9.

[9] = tested on: EJ human bladder cancer cells; experiment: Prodrug activation of SN-38G by enzyme, 3H-thymidine incorporation; assay type: cell-based; conditions: 100 nM SN-38G
Description: as §2, §3

[10] = Kinetic values (Km, kcat) of soluble recombinant human β-glucuronidase and variants; assay type: biochemical
Description: Recombinant His-tagged wild-type human β-glucuronidase and its variants (soluble) were produced in and purified from stable 3T3 fibroblast lines, following the method described above also the method described in Wu et al., Biotechnol Appl Biochem 40:167-172 (2004).
The pH-dependent enzyme activities of the above-mentioned recombinant human beta-glucuronidase and variants were measured in triplicate with 0.1 mM ELF97 β-D-glucuronide at 37° C. for 30 minutes at a defined pH ranging from 3-10 in a beta-glucuronidase reaction buffer (50 mM Bis-Tris, 50 mM triethanol amine, 100 mM acetic acid, 0.1% BSA). The reaction was quenched by adding an equal volume of a stop buffer (2 M Tris-HCl, 0.8 M sodium bicarbonate, pH 8). The fluorescence of ELF97 was measured in a Gemini EM microplate spectrofluorometer (Molecular Device, Sunnyvale, Calif.) at excitation/emission wavelengths of 355/555 nm. Kinetic values for human beta-glucuronidase substrate hydrolysis were determined by diluting ELF97 β-D-glucuronide (2 mM) in a pH 4.5 or pH 7.0 beta-glucuronidase reaction buffer 1:1 with defined concentrations of human beta-glucuronidase in 200 μl. Fluorescence was immediately measured under thermal control at 37° C. for 8-10 min. The measurement was repeated using the same amount of enzyme at different substrate concentrations in an optimal range. The acquired readings were converted to product concentration based on preestablished standard curves. Double reciprocal plots were used to determine Km and kcat. Kinetic assays were performed at least 3 times and mean values were calculated. The stability of recombinant human beta-glucuronidase variants was carried out by measuring their enzymatic activity at time 0 and again after incubating 5 μg purified enzymes in PBS (containing 0.5 mg/ml BSA) at 37° C. for 14 days. The enzymatic activities of the human beta-glucuronidase variants were measured in triplicate with 0.5 mM 4-methylumbelliferyl β-D-glucuronide at 37° C. for 15 minutes at pH 7.0 in β-glucuronidase reaction buffer. The reaction was terminated by adding an equal volume of a stop buffer (1 M glycine, 0.5 M sodium bicarbonate, pH 11) and the fluorescence was measured at excitation/emission wavelengths of 355/460 nm in a microplate spectrofluorometer.

[11] = Relative activity of membrane-tethered human β-glucuronidase variants on 3T3 cells by flow cytometry (FL4/FL1); assay type: cell-based; conditions: membrane-tethered enzyme, pH 7.0, substrate ELF97 β-D-glucuronide
Description: The 3T3 cell libraries mentioned above were screened by FACS analysis for cells that express human β-glucuronidase variants with elevated enzymatic activity. 10^7 3T3 cells expressing membrane-bound human β-glucuronidase variants were washed and suspended in 0.4 ml BSA/HBSS (5.4 mM KCl, 0.3 mM Na2HPO4, 0.4 mM KH2PO4, 4.2 mM NaHCO3, 1.3 mM CaCl2, 0.5 mM MgCl2, 0.6 mM MgSO4, 137 mM NaCl, 5.6 mM D-glucose, pH 7.4) containing 0.5% bovine serum albumin (BSA) and 20 μg/ml 7G8-FITC for 30 min at 4° C. Cells were then washed and incubated with 25, 50 or 100 μM ELF97 β-D-glucuronide at defined pH values in 50 mM Bis-Tris, 25 mM glucose, 85.6 mM NaCl, 5.4 mM KCl, 0.6 mM MgSO4, 1.3 mM CaCl2) at 37° C. for 10 min. The cells were washed with ice-cold 0.5% BSA/HBSS and suspended in 0.5% BSA/HBSS containing 5 μg/ml propidium iodide (Sigma). Cells were then sorted on a FACSVantage DiVa (Becton, Dickinson and Company, Franklin Lakes, N.J.) equipped with an Enterprise IIC argon laser for dual excitation at 488 and 351-364 nm. Dead cells (propidium iodide positive, high FL3 fluorescence) were gated out before 7G8-FITC immunofluorescence was detected at excitation/emission wavelengths of 488/515 nm (FL1) and ELF97 was detected at excitation/emission wavelengths of 351/530 nm (FL4). […] The sorted cells were cultured for 4-10 days for sequential rounds of cell sorting or RNA extraction. Flow cytometer data was analyzed using Flowjo (Tree star, Ashland, Oreg.).
Independent 3T3 clones (5×10^7) in library EP2 mentioned above were immunofluorescence stained with 7G8-FITC and reacted with ELF97 β-D-glucuronide at pH 7.0. Sixteen individual cell clones were isolated after three rounds of sorting and the human β-glucuronidase genes were sequenced. […] Table 1 below lists amino acid substitutions in five exemplary variants and their relative enzymatic activities.

[12] = 24 h after CPT-11 10 mg/kg i.v.

With CCc1c2c(nc3ccc(OC(=O)N4CCC(N5CCCCC5)CC4)cc13)-c1cc3c(c(=O)n1C2)COC(=O)[C@]3(O)CC [CPT-11] the IC50 [1] was ~2100 nM, the IC50 [2] was ~2100 nM and the “Intratumoral concentrations in EJ versus EJ/mβG tumors” value ([3]; 2, 8 and 24 h) was “identical”. The “Concentration in EJ xenografts” value ([3]; 2 h after CPT-11 10 mg/kg i.v.) was 1350 ± 200 ng drug/g tumor, the “Concentration in EJ/mβG xenografts” value ([3]; 2 h after CPT-11 10 mg/kg i.v.) was 1500 ± 230 ng drug/g tumor and the “Concentration in EJ xenografts” value ([3]; 8 h after CPT-11 10 mg/kg i.v.) was 87 ± 17 ng drug/g tumor. For the same molecule, the “Concentration in EJ/mβG xenografts” value ([3]; 8 h after CPT-11 10 mg/kg i.v.) was 77 ± 178 ng drug/g tumor, the “Concentration in EJ xenografts” value [3, 12] was 0.58 ± 0.09 ng drug/g tumor and the “Concentration in EJ/mβG xenografts” value [3, 12] was 0.63 ± 0.11 ng drug/g tumor. For the same molecule, the “Delay of tumor growth” value [4] was “did not significantly delay”, the “Serum levels in mice bearing EJ versus EJ/mβG tumor” value ([5]; 2 h after CPT-11 administration) was “similar” and the “Serum concentrations in mice bearing EJ versus EJ/mβG tumor” value ([5]; 8 h or 24 h after CPT-11 administration) was “no significant differences”. For the same molecule, the “Delay of tumor growth” value [6] was “significantly delayed”.

B1: S2: human beta-glucuronidase variant V159M, T545S, E595L, T599L, SEQ ID NO: 8 (protein)
chain: AAQPALQGGMLYPQESPSRECKELDGLWSFRADFSDNRRRGFEEQWYRRPLWESGPTVDMPVPSSFNDISQDWRLRHFVGWVWYEREVILPERWTQDLRTRVVLRIGSAHSYAIVWVNGVDTLEHEGGYLPFEADISNLVQMGPLPSRLRITIAINNTLTPTTLPPGTIQYLTDTSKYPKGYFVQNTYFDFFNYAGLQRSVLLYTTPTTYIDDITVTTSVEQDSGLVNYQISVKGSNLFKLEVRLLDAENKVVANGTGTQGQLKVPGVSLWWPYLMHERPAYLYSLEVQLTAQTSLGPVSDFYTLPVGIRTVAVTKSQFLINGKPFYFHGVNKHEDADIRGKGFDWPLLVKDFNLLRWLGANAFRTSHYPYAEEVMQMCDRYGIVVIDECPGVGLALPQFFNNVSLHHHMQVMEEVVRRDKNHPAVVMWSVANEPASHLESAGYYLKMVIAHTKSLDPSRPVTFVSNSNYAADKGAPYVDVICLNSYYSWYHDYGHLELIQLQLATQFENWYKKYQKPIIQSEYGAESIAGFHQDPPLMFTEEYQKSLLEQYHLGLDQKRRKYVVGELIWNFADFMTLQSPLRVLGNKKGIFTRQRQPKSAAFLLRERYWKIANETRYPHSVAKSQCLENSPFTSVD
modifications: Laboratory generated variant, S2, based upon the human beta-glucuronidase
In the case of B1, the “Fold more effective than wild type (HAMG activation)” value ([7]; pH 6.8) is reported as 9 fold, the “EC50 of enzyme for killing of EJ cells with HAMG” value ([7]; pH 6.8, 24 h) is reported as 2.7 µg/mL and the “Enzymatic activity compared with wild-type hβG” value [8] is reported as “significantly greater”. For the same molecule, the “Fold improvement in prodrug activation over wild type (SN-38G)” value ([9]; pH 6.8) was 11 fold, the “EC50 of enzyme for killing of EJ cells with SN-38G” value ([9]; pH 6.8, 24 h) was 0.0084 µg/mL and the Km ([10]; pH 4.5, 37° C.) was 8.1 ± 0.8 µM. The kcat ([10]; pH 4.5, 37° C.) was 107 ± 7 s⁻¹, the Km ([10]; pH 7.0, 37° C.) was 35 ± 3 µM and the kcat ([10]; pH 7.0, 37° C.) was 42 ± 4 s⁻¹. For the same molecule, the “kcat/Km at pH 7.0, fold greater than kcat/Km of wild type at pH 4.5” value ([10]; variant at pH 7.0 vs wild type at pH 4.5) was “about 2 fold” and the “Relative activity (FL4/FL1 normalized to wild-type human β-glucuronidase)” value [11] was 65.

— US8491891B2, “Human beta-glucuronidase mutants with elevated enzymatic activity under physiological conditions and method for identifying such” (Academia Sinica, priority 2008, dated 2013)
